Assay results reported in publication PMC5514153, “Targeting PTPRZ inhibits stem cell-like properties and tumorigenicity in glioblastoma cells” (Scientific Reports, 2017).

Legend:
[1] = target: T1, mPTPRB (Mus musculus, UniProt B2RU80); assay: In vitro PTPase assay (DiFMUP), PTPRB; format: biochemical; settings: 60-min preincubation
T1 construct: The ICRs of PTPRG, PTPRS, and PTPRB and the catalytic domains of PTPN1 and PTPN6; GST (N); made in house; host or cells: Escherichia coli BL21
Procedure: Figure 4 NAZ2329, an allosteric inhibitor of R5 RPTP subfamily members. (A) Structure of NAZ2329. (B) Effect of preincubation of NAZ2329 on its inhibitory activity against PTPRZ. Recombinant human PTPRZ1 enzyme (the whole intracellular region) was premixed with NAZ2329 for the indicated times and followed by addition of a fluorogenic DiFMUP (non-specific PTP substrate, 6,8-difluoro-4-methylumbiliferyl phosphate) to measure PTP inhibitory activity. (C) Time dependence. The PTPRZ1 enzyme was added to the inhibitor–substrate mixture, and the inhibitory activity was determined at each time point relative to the vehicle control. (D) Reversibility of inhibition. […] The mixture was then 20-fold diluted, and recovered PTP activity was expressed as the relative activity compared with the vehicle-treated enzyme. […] PTPRZ1 enzymes were preincubated with NAZ2329 for 60 min, and the PTP activity was measured using DiFMUP. […]
Recombinant proteins corresponding to the entire intracellular regions (ICRs) of PTPRZ1, PTPRA, and PTPRM were expressed using a baculovirus-silkworm expression system, and purified as described. The ICRs of PTPRG, PTPRS, and PTPRB and the catalytic domains of PTPN1 and PTPN6 were expressed as glutathione-S-transferase (GST) fusion proteins from each pGEX plasmid in Escherichia coli strain BL21 (ref. [6]). […]

[2] = tested on: C6 cells; assay: Cell proliferation assay, C6 cells; format: cell-based, rat; settings: 48 h, 2% FBS
Procedure: Figure 7 Cellular effects of NAZ2329 on the malignant phenotypes of C6 cells. (A) Phosphorylation of paxillin at Tyr-118. C6 cells were incubated with NAZ2329 for the indicated periods. Immunoprecipitated paxillin was analyzed by Western blotting using anti-pY118-paxillin and anti-paxillin. Blots are representative of five independent cultures. […] (B) Cell proliferation assay. C6 cells were incubated for 48 h with NAZ2329 in normal medium containing 2% FBS. […] (C) Boyden chamber assay. Cells were allowed to migrate for 3 h. DAPI-stained nuclei are shown before (total) and after (migrated) the removal of cells remaining in the top chamber. Scale bars, 100 µm. […] (D,E) Sphere formation (D) and SOX2 expression (E). C6 cells were cultured in CSC medium for 7 days with indicated concentrations of NAZ2329. Images are representative of five independent cultures. Scale bars, 100 µm. […] (F) Self-renewal of C6 spheres. C6 spheres were initially developed in CSC medium for 7 days, followed by an incubation with NAZ2329 in CSC medium for 5 days. Images are representative of five independent cultures. Scale bars, 100 µm. […]
Cells (3 × 10^4 cells) were inoculated into a 24-well plastic tissue culture plate with 500 µl of DMEM supplemented with 2% FBS and the indicated compounds for 48 h. Cells were harvested by trypsinization and then manually counted with a hemacytometer.

[3] = tested on: C6 cells; assay: Boyden chamber migration assay, C6 cells; format: cell-based, rat; settings: 3 h
Procedure: Figure 7 Cellular effects of NAZ2329 on the malignant phenotypes of C6 cells. (A) Phosphorylation of paxillin at Tyr-118. C6 cells were incubated with NAZ2329 for the indicated periods. Immunoprecipitated paxillin was analyzed by Western blotting using anti-pY118-paxillin and anti-paxillin. Blots are representative of five independent cultures. […] (B) Cell proliferation assay. C6 cells were incubated for 48 h with NAZ2329 in normal medium containing 2% FBS. […] (C) Boyden chamber assay. Cells were allowed to migrate for 3 h. DAPI-stained nuclei are shown before (total) and after (migrated) the removal of cells remaining in the top chamber. Scale bars, 100 µm. […] (D,E) Sphere formation (D) and SOX2 expression (E). C6 cells were cultured in CSC medium for 7 days with indicated concentrations of NAZ2329. Images are representative of five independent cultures. Scale bars, 100 µm. […] (F) Self-renewal of C6 spheres. C6 spheres were initially developed in CSC medium for 7 days, followed by an incubation with NAZ2329 in CSC medium for 5 days. Images are representative of five independent cultures. Scale bars, 100 µm. […] Full-length blots and gels are presented in Supplementary Fig. S7.
This assay was performed as described previously. […] Cells were allowed to migrate for 3 h, and the number of cells that migrated to the lower surface was counted under a conventional fluorescence microscope.

T1 sequence (B2RU80 1644-1997 limits assumed): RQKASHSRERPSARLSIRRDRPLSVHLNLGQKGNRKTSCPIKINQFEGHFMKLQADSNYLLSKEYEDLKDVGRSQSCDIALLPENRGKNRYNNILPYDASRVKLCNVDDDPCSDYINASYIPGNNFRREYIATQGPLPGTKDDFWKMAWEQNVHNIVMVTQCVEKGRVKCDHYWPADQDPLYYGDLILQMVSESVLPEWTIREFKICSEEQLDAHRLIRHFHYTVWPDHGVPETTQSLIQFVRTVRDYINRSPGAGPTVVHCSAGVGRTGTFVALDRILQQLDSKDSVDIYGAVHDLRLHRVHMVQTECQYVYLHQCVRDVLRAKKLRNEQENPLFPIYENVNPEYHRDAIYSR

## CCOc1ccc(C(F)(F)F)cc1CSc1ccsc1C(=O)NS(=O)(=O)c1ccccc1 [NAZ2329]
[1]
  IC50: 35.4 µM
[2]
  cell proliferation: inhibited cell proliferation
[3]
  cell migration: inhibited
